Results as given in the NIST ThermoML archive (doi:10.1021/je060271a).
Several values for one entry are separate records, joined by “and”; a condition that tells them apart may be missing. Equal entries are not always repeated.

Conditions: Liquid, Vibrating tube method

CCCCCC(=O)OCC(COC(=O)CCCCC)(COC(=O)CCCCC)COC(=O)CCCCC [pentaerythritol tetrahexanoate]
Conditions	mass density
323.15 K, 11949 kPa	980.8 kg/m3
323.15 K, 11977 kPa	980.8 kg/m3
323.15 K, 12000 kPa	980.8 kg/m3
323.15 K, 12028 kPa	980.8 kg/m3
323.15 K, 12051 kPa	980.9 kg/m3
323.15 K, 12077 kPa	980.9 kg/m3
323.15 K, 12104 kPa	981 kg/m3
323.15 K, 12127 kPa	980.9 kg/m3
323.15 K, 12155 kPa	980.9 kg/m3
323.15 K, 12178 kPa	981 kg/m3
323.15 K, 12205 kPa	981 kg/m3
323.15 K, 12233 kPa	980.9 kg/m3
323.15 K, 12257 kPa	981 kg/m3
323.15 K, 12285 kPa	981.1 kg/m3
323.15 K, 12310 kPa	981.2 kg/m3
323.15 K, 12338 kPa	981.1 kg/m3
323.15 K, 12362 kPa	981.2 kg/m3
323.15 K, 12390 kPa	981.1 kg/m3
323.15 K, 12414 kPa	981 kg/m3
323.15 K, 12442 kPa	981.2 kg/m3
323.15 K, 12471 kPa	981.2 kg/m3
323.15 K, 12494 kPa	981.2 kg/m3
323.15 K, 12523 kPa	981.3 kg/m3
323.15 K, 12547 kPa	981.4 kg/m3
323.15 K, 12576 kPa	981.2 kg/m3
323.15 K, 12605 kPa	981.4 kg/m3
323.15 K, 12630 kPa	981.2 kg/m3
323.15 K, 12927 kPa	981.5 kg/m3
323.15 K, 12950 kPa	981.5 kg/m3
323.15 K, 12980 kPa	981.6 kg/m3
323.15 K, 13006 kPa	981.6 kg/m3
323.15 K, 13029 kPa	981.6 kg/m3
323.15 K, 13186 kPa	981.7 kg/m3
323.15 K, 13214 kPa	981.6 kg/m3
323.15 K, 13237 kPa	981.6 kg/m3
323.15 K, 13264 kPa	981.8 kg/m3
323.15 K, 13292 kPa	981.7 kg/m3
323.15 K, 13315 kPa	981.8 kg/m3
323.15 K, 13345 kPa	981.8 kg/m3
323.15 K, 13368 kPa	981.9 kg/m3
323.15 K, 13396 kPa	981.8 kg/m3
323.15 K, 13420 kPa	981.8 kg/m3
323.15 K, 13891 kPa	982.1 kg/m3
323.15 K, 13918 kPa	982.1 kg/m3
323.15 K, 13941 kPa	982.1 kg/m3
323.15 K, 13969 kPa	982.2 kg/m3
323.15 K, 13992 kPa	982.2 kg/m3
323.15 K, 14020 kPa	982.3 kg/m3
323.15 K, 14514 kPa	982.5 kg/m3
323.15 K, 14565 kPa	982.6 kg/m3
323.15 K, 14593 kPa	982.6 kg/m3
323.15 K, 14621 kPa	982.6 kg/m3
323.15 K, 14645 kPa	982.6 kg/m3
323.15 K, 14674 kPa	982.6 kg/m3
323.15 K, 14698 kPa	982.5 kg/m3
323.15 K, 14726 kPa	982.7 kg/m3
323.15 K, 14750 kPa	982.7 kg/m3
323.15 K, 14778 kPa	982.8 kg/m3
323.15 K, 14807 kPa	982.7 kg/m3
323.15 K, 14831 kPa	982.8 kg/m3
323.15 K, 15257 kPa	983 kg/m3
323.15 K, 15281 kPa	983.1 kg/m3
323.15 K, 15309 kPa	983.1 kg/m3
323.15 K, 15339 kPa	983 kg/m3
323.15 K, 15364 kPa	983.2 kg/m3
323.15 K, 15393 kPa	983.1 kg/m3
323.15 K, 15417 kPa	983.1 kg/m3
323.15 K, 20896 kPa	986.7 kg/m3
323.15 K, 22666 kPa	987.8 kg/m3
323.15 K, 28442 kPa	991.1 kg/m3
323.15 K, 28670 kPa	991.3 kg/m3
323.15 K, 28695 kPa	991.4 kg/m3
323.15 K, 28724 kPa	991.4 kg/m3
323.15 K, 28754 kPa	991.4 kg/m3
323.15 K, 28783 kPa	991.4 kg/m3
323.15 K, 28808 kPa	991.4 kg/m3
323.15 K, 28838 kPa	991.4 kg/m3
323.15 K, 28867 kPa	991.4 kg/m3
323.15 K, 28897 kPa	991.6 kg/m3
323.15 K, 28927 kPa	991.5 kg/m3
323.15 K, 28957 kPa	991.6 kg/m3
323.15 K, 28982 kPa	991.5 kg/m3
323.15 K, 29012 kPa	991.5 kg/m3
323.15 K, 29044 kPa	991.5 kg/m3
323.15 K, 29070 kPa	991.5 kg/m3
323.15 K, 29101 kPa	991.7 kg/m3
323.15 K, 29132 kPa	991.7 kg/m3
323.15 K, 29158 kPa	991.6 kg/m3
323.15 K, 29554 kPa	991.8 kg/m3
323.15 K, 29577 kPa	991.9 kg/m3
323.15 K, 29762 kPa	992 kg/m3
323.15 K, 29785 kPa	992 kg/m3
323.15 K, 29812 kPa	992 kg/m3
323.15 K, 29839 kPa	992.1 kg/m3
323.15 K, 29866 kPa	992.2 kg/m3
323.15 K, 29893 kPa	992.1 kg/m3
323.15 K, 29921 kPa	992 kg/m3
323.15 K, 29944 kPa	992 kg/m3
323.15 K, 29972 kPa	992.2 kg/m3
323.15 K, 30466 kPa	992.5 kg/m3
323.15 K, 30496 kPa	992.4 kg/m3
323.15 K, 30520 kPa	992.4 kg/m3
323.15 K, 30549 kPa	992.5 kg/m3
323.15 K, 31454 kPa	992.9 kg/m3
323.15 K, 31474 kPa	992.9 kg/m3
323.15 K, 31495 kPa	993 kg/m3
323.15 K, 31516 kPa	993 kg/m3
323.15 K, 31533 kPa	993 kg/m3
323.15 K, 31653 kPa	993.1 kg/m3
323.15 K, 31674 kPa	993.2 kg/m3
323.15 K, 31695 kPa	993.2 kg/m3
323.15 K, 31717 kPa	993.1 kg/m3
323.15 K, 31734 kPa	993.2 kg/m3
323.15 K, 31755 kPa	993.1 kg/m3
323.15 K, 32384 kPa	993.6 kg/m3 and 993.5 kg/m3
323.15 K, 32385 kPa	993.5 kg/m3
323.15 K, 32386 kPa	993.5 kg/m3
323.15 K, 32387 kPa	993.6 kg/m3
323.16 K, 578.8 kPa	973 kg/m3
323.16 K, 580.8 kPa	973.2 kg/m3
323.16 K, 582.6 kPa	973.1 kg/m3
323.16 K, 584.7 kPa	973 kg/m3
323.16 K, 586.6 kPa	973 kg/m3
323.16 K, 588.7 kPa	973 kg/m3
323.16 K, 590.7 kPa	973.3 kg/m3
323.16 K, 714.1 kPa	973.2 kg/m3
323.16 K, 716.9 kPa	973.2 kg/m3
323.16 K, 718.8 kPa	973.3 kg/m3
323.16 K, 721.8 kPa	973.3 kg/m3
323.16 K, 724 kPa	973.2 kg/m3
323.16 K, 727.1 kPa	973.1 kg/m3
323.16 K, 729.4 kPa	973.2 kg/m3
323.16 K, 732.2 kPa	973.2 kg/m3
323.16 K, 735.1 kPa	973.1 kg/m3
323.16 K, 737.9 kPa	973.2 kg/m3
323.16 K, 1019.3 kPa	973.3 kg/m3
323.16 K, 1022.8 kPa	973.4 kg/m3
323.16 K, 1026.6 kPa	973.4 kg/m3
323.16 K, 1030.3 kPa	973.5 kg/m3
323.16 K, 1034.3 kPa	973.3 kg/m3
323.16 K, 1037.9 kPa	973.5 kg/m3
323.16 K, 1042.3 kPa	973.3 kg/m3
323.16 K, 1045.6 kPa	973.4 kg/m3
323.16 K, 1049.9 kPa	973.4 kg/m3
323.16 K, 1053.7 kPa	973.4 kg/m3
